From ChEMBL document CHEMBL5252527, “An Update on Poly(ADP-ribose)polymerase-1 (PARP-1) Inhibitors: Opportunities and Challenges in Cancer Therapy” (J Med Chem, 2016)
Values belong to the compound of their own block, whether it stands above or below them.

Key:
[1] = target: Poly [ADP-ribose] polymerase 1 (Mus musculus, UniProt P11103); assay: Inhibition of mouse recombinant PARP-1 incubated for 60 mins
[2] = target: Poly [ADP-ribose] polymerase 1 (Bos taurus, UniProt P18493); assay: Inhibition of calf thymus PARP-1
Sequence of Poly [ADP-ribose] polymerase 1 (Bos taurus, UniProt P18493) (P18493 whole entry): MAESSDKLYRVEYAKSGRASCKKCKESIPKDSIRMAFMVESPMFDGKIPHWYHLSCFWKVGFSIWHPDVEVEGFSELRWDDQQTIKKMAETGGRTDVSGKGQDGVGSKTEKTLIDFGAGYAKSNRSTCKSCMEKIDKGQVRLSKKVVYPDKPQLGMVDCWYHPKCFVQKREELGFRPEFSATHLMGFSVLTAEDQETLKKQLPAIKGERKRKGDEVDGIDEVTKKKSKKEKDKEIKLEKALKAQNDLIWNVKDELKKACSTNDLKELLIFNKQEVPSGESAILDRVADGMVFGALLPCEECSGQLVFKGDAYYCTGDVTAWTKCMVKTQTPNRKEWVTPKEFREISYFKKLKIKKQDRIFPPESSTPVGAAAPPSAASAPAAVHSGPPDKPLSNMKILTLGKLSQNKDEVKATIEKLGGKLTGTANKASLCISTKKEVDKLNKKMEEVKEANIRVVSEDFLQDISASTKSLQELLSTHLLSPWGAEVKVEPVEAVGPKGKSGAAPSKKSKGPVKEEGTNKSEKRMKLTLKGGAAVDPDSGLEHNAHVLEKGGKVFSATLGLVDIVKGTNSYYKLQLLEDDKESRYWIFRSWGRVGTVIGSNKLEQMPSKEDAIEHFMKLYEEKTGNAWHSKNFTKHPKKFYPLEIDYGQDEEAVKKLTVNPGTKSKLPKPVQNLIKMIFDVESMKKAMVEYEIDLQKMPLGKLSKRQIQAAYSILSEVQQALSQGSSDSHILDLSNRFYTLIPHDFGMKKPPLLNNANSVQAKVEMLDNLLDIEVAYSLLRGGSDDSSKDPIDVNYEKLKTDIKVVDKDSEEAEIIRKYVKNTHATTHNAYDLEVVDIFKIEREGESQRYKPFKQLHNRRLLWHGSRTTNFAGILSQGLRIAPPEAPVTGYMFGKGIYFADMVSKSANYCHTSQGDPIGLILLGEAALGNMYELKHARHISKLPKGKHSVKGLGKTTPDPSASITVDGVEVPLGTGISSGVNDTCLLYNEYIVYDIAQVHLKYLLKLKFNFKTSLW

[3] = Inhibition of calf thymus […]; set-up: species or system Bos taurus
[4] = target: T1, Poly [ADP-ribose] polymerase 2 (Homo sapiens, UniProt Q9UGN5); assay: Inhibition of human PARP-2 incubated for 18 to 20 hrs by scintillation proximity assay
T1 sequence (Q9UGN5 whole entry): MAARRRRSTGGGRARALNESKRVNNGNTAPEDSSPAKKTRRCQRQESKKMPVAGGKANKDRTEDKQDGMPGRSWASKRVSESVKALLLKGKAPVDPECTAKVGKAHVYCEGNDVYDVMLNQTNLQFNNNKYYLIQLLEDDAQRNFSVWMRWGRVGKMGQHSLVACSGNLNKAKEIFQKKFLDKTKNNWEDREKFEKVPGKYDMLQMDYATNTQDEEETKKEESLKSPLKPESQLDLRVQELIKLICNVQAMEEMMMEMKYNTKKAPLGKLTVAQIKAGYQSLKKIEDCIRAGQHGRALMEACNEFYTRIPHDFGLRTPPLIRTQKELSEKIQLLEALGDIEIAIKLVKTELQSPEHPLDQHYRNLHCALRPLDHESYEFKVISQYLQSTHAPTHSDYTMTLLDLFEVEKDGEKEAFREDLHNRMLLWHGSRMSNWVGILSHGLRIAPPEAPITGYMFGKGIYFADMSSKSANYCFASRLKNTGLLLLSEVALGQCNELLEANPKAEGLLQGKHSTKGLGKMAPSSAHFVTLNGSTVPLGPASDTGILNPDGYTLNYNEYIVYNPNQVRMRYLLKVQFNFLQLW

[5] = target: T2, Poly [ADP-ribose] polymerase 1 (Homo sapiens, UniProt P09874); assay: Inhibition of human PARP-1 using histone as substrate incubated for 16 hrs by ELISA assay
T2 sequence (P09874 whole entry): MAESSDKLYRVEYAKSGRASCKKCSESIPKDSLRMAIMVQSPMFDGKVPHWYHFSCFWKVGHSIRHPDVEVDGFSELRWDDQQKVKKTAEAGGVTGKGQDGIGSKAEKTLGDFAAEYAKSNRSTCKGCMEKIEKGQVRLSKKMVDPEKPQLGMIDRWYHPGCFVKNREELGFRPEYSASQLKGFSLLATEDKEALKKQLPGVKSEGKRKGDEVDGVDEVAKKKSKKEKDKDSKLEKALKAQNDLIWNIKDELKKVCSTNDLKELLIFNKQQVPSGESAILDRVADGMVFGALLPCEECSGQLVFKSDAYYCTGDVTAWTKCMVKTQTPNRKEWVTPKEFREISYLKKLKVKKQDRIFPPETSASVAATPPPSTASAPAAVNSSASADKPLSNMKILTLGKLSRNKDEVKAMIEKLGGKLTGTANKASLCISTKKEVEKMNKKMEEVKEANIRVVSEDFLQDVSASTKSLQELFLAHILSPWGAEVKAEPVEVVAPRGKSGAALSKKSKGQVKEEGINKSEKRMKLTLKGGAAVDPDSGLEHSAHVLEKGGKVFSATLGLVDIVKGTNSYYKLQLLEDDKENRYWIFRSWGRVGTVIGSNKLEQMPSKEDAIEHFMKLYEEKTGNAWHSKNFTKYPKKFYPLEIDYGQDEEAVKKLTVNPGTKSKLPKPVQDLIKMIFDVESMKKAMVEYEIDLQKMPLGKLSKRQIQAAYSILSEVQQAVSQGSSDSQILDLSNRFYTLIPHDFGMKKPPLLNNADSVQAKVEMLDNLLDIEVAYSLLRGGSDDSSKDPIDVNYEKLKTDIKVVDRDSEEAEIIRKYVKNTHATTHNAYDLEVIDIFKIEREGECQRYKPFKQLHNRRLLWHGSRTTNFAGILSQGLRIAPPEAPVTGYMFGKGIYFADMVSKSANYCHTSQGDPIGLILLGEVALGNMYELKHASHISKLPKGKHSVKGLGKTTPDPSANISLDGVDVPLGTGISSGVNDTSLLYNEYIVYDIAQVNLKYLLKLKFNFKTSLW

Homo sapiens = species: Homo sapiens; assay: Selectivity index, ratio of IC50 of human PARP-1 to IC50 of human PARP-2
[6] = target: T2, Poly [ADP-ribose] polymerase 1; assay: Inhibition of PARP-1 (unknown origin)
[7] = target: T1, Poly [ADP-ribose] polymerase 2; assay: Inhibition of PARP-2 (unknown origin)
U-251 = assay: Inhibition of human PARP expressed in U-251 cells at 3 uM relative to control; format: cell-based
[8] = target: T2, Poly [ADP-ribose] polymerase 1; assay: Inhibition of PARP-1 (unknown origin) assessed as inhibition constant
[9] = target: T2, Poly [ADP-ribose] polymerase 1; assay: Inhibition of human PARP-1
[10] = Oral bioavailability in rat; format: ADME, organism-based; details: in vivo
[11] = Half life in rat; format: ADME; details: in vivo

Sequence of Poly [ADP-ribose] polymerase 1 (Mus musculus, UniProt P11103) (P11103 whole entry): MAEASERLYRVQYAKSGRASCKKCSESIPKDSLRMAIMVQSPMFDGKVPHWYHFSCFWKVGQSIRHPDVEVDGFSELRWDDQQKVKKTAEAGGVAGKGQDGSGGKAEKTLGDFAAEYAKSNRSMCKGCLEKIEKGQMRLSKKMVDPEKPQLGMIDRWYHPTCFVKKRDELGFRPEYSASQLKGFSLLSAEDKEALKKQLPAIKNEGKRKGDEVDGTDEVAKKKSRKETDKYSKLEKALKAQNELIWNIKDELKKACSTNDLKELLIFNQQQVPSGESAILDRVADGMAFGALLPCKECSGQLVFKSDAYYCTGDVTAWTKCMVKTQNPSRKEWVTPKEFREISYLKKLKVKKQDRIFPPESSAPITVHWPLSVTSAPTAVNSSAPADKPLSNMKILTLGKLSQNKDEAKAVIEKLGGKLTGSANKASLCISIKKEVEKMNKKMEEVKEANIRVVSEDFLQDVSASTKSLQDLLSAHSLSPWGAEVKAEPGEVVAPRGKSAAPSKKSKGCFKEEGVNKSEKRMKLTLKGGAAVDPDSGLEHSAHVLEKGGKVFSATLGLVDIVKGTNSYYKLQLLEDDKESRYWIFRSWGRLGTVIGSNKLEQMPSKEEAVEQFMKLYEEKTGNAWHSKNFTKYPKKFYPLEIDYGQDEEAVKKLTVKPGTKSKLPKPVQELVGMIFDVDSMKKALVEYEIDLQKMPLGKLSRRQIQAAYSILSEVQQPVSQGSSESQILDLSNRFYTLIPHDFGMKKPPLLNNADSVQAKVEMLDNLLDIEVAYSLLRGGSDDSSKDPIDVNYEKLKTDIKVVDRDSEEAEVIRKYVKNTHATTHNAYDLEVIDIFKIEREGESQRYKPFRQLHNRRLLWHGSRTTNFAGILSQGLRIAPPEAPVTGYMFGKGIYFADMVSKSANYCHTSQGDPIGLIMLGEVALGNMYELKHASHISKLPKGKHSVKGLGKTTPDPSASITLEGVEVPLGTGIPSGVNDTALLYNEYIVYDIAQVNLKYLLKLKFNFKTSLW

SMILES: O=C(Nc1cccc2c(=O)[nH]ccc12)c1ccccc1
- IC50 [1]: 1500 nM

SMILES: Cc1cccc2c(=O)[nH]c(CCCN3CC=C(c4ccc(F)cc4)CC3)nc12
- IC50 [2]: 16 nM
- IC50 [3]: 167 nM

SMILES: Cn1cccc1/C=C1\C(=O)NC(=O)c2ccccc21
- IC50 [4]: 4000 nM

SMILES: CC(C)(C)[Si](C)(C)OCCCN1CCN(C(=O)c2cc(Cn3c(=O)[nH]c(=O)c4ccccc43)ccc2F)CC1=O
- IC50 [5]: 1.29 nM
- Ratio IC50 (Homo sapiens): 8

SMILES: COc1cccc2[nH]c3c4c(c5c(c3c12)C(=O)N(CN1CCN(C)CC1)C5=O)CCC4 [CEP-9722]
- IC50 [6]: 20 nM
- IC50 [7]: 6 nM

SMILES: O=c1[nH]nc2c3c(cccc13)Oc1ccc(CN3CCC(O)CC3)cc1-2 [E-7016]
- inhibition (U-251): 84%
- Ki [8]: 50 nM

Second part, the compound after the results:

- IC50 [9]: 100000 nM
SMILES: NC(=O)c1ccc(I)c([N+](=O)[O-])c1 [INIPARIB]

- IC50 [7]: 0.11 nM
SMILES: C[C@]12CCCN1CC1=NNC(=O)c3cc(F)cc4[nH]c2c1c34 [PAMIPARIB]

- bioavailability [10]: > 40%
- t1/2 [11]: 40 h
SMILES: Cn1ncnc1[C@H]1c2n[nH]c(=O)c3cc(F)cc(c23)N[C@@H]1c1ccc(F)cc1 [TALAZOPARIB]
